Experimental data: the NIST ThermoML archive (doi:10.1021/je200757a)

How the values were obtained:
[1] = for viscosity / mass density: 101 kPa, Liquid; for viscosity: Capillary tube (Ostwald / Ubbelohde) method; for mass density: Vibrating tube method
[2] = refractive index (Na D-line) (dimensionless); conditions: 101.33 kPa, Liquid
[3] = refractive index (Na D-line) (dimensionless); xn = mol fraction of the nth substance listed; conditions: 101 kPa, Liquid, x1 = 1
[4] = xn = mol fraction of the nth substance listed; conditions: x1 = 1; for viscosity / mass density: 101 kPa, Liquid; for viscosity: Capillary tube (Ostwald / Ubbelohde) method; for mass density: Vibrating tube method

CCCCCCCCCCCC [dodecane]
Conditions	mass density, [1] [kg/m3]	refractive index, [2]	surface tension liquid-gas, [1] [mN/m]	viscosity, [1] [mPa·s]
293.15 K	748.6	1.4219	24.07	1.507
298.15 K	745	–	–	1.377
303.15 K	741.4	1.4168	23.67	1.266
313.15 K	734.1	–	–	1.084

CCCCCCCCCCCC [dodecane] + C1C[C@@H]2[C@H]3CC[C@H](C3)[C@@H]2C1
Conditions	mass density, [4] [kg/m3]	refractive index, [3]	surface tension liquid-gas, [4] [mN/m]	viscosity, [4] [mPa·s]
293.15 K	748.6	1.4219	24.07	1.507
298.15 K	745	–	–	1.377
303.15 K	741.4	1.4168	23.67	1.266
313.15 K	734.1	–	–	1.084

C1C[C@@H]2[C@H]3CC[C@H](C3)[C@@H]2C1 [exo-tetrahydrodicyclopentadiene]
[1], Capillary rise
Conditions	surface tension liquid-gas [mN/m]
293.15 K	31.86
303.15 K	31.09

Conditions	mass density, 293.15 K [kg/m3]	mass density, 298.15 K [kg/m3]	mass density, 303.15 K [kg/m3]	mass density, 313.15 K [kg/m3]	refractive index, 293.15 K	refractive index, 303.15 K	viscosity, 293.15 K [mPa·s]	viscosity, 298.15 K [mPa·s]	viscosity, 303.15 K [mPa·s]	viscosity, 313.15 K [mPa·s]
[1]	935.3	931.4	927.5	919.6	–	–	3.077	2.784	2.525	2.112
[2]	–	–	–	–	1.4877	1.4832	–	–	–	–

CCCCCCCCC [nonane]
[1], Capillary rise
Conditions	surface tension liquid-gas [mN/m]
293.15 K	22.2
303.15 K	21.41

Conditions	mass density, 293.15 K [kg/m3]	mass density, 298.15 K [kg/m3]	mass density, 303.15 K [kg/m3]	mass density, 313.15 K [kg/m3]	refractive index, 293.15 K	refractive index, 303.15 K	viscosity, 293.15 K [mPa·s]	viscosity, 298.15 K [mPa·s]	viscosity, 303.15 K [mPa·s]	viscosity, 313.15 K [mPa·s]
[1]	717.8	713.9	710	702.1	–	–	0.733	0.687	0.647	0.579
[2]	–	–	–	–	1.4048	1.4001	–	–	–	–

CCCCCCCCC [nonane] + C1C[C@@H]2[C@H]3CC[C@H](C3)[C@@H]2C1
Conditions	mass density, 293.15 K [kg/m3]	mass density, 298.15 K [kg/m3]	mass density, 303.15 K [kg/m3]	mass density, 313.15 K [kg/m3]	refractive index, 293.15 K	refractive index, 303.15 K	viscosity, 293.15 K [mPa·s]	viscosity, 298.15 K [mPa·s]	viscosity, 303.15 K [mPa·s]	viscosity, 313.15 K [mPa·s]
[3]	–	–	–	–	1.4048	1.4001	–	–	–	–
[4]	717.8	713.9	710	702.1	–	–	0.733	0.687	0.647	0.579

[4], Capillary rise
Conditions	surface tension liquid-gas [mN/m]
293.15 K	22.2
303.15 K	21.41

CCCCCCCCCCCCC [tridecane]
Conditions	mass density, [1] [kg/m3]	refractive index, [2]	surface tension liquid-gas, [1] [mN/m]	viscosity, [1] [mPa·s]
293.15 K	756.5	1.4253	24.79	1.894
298.15 K	752.9	–	–	1.726
303.15 K	749.3	1.4213	24.08	1.577
313.15 K	742.2	–	–	1.325

CCCCCCCCCCCCC [tridecane] + C1C[C@@H]2[C@H]3CC[C@H](C3)[C@@H]2C1
Conditions	mass density, [4] [kg/m3]	refractive index, [3]	surface tension liquid-gas, [4] [mN/m]	viscosity, [4] [mPa·s]
293.15 K	756.5	1.4253	24.79	1.894
298.15 K	752.9	–	–	1.726
303.15 K	749.3	1.4213	24.08	1.577
313.15 K	742.2	–	–	1.325
